According to US20210179680A1, “POLYPEPTIDE, DERIVATIVES THEREOF, AND APPLICATION THEREOF IN PREPARATION OF DRUGS HAVING RESISTANCE TO PULMONARY FIBROSIS” (priority 2016, published 2021):
Bridge positions count the residues as written; N and C are the ends. Square brackets hold non-standard residues; d marks the D form. Peptide text beside a SMILES is read from it. S5 = C=CCCC[C@](C)(N)C(=O)O

How the values were obtained:
[1] = tested on: mice with bleomycin-induced pulmonary fibrosis; assay: Lung weight index in mice with pulmonary fibrosis; assay type: in vivo, C57BL/6 mice; conditions: Table 3 groups, 2 mg/kg i.p.; after 28 days; lung weight (mg) divided by body weight (g)
Method: (§1) Male C57BL/6 mice were fasted overnight, then anesthetized with 45 mg/kg sodium pentobarbital by injection intraperitoneally (i.p.), and intratracheally injected with bleomycin at a dose of 3 U/kg. The specific operation steps are as follows: cut the neck skin of the mouse with as little trauma as possible, expose the trachea with the assistance of elbow ophthalmic forceps, puncture the trachea and inject about 50 μL of bleomycin into the trachea with a microsyringe, rotate the mouse quickly and stand it upright for 5 minutes in order to make bleomycin evenly enter the left and right lobe, thereby constructing an animal model. The whole operation was performed at a surgical table at about […]. Mice in the sham operation group were intratracheally injected with an equal amount of physiological saline for injection.
Pulmonary fibrosis model was prepared according to the method described in Example 2, and administered in groups according to Table 3. After 28 days, the lungs of the mice were finely stripped and weighed, and a lung weight index was obtained from dividing the lung weight (mg) by the body weight (g) of the mice. […] In FIG. 7, “##” represents that P value is less than 0.01 when the lung weight index of administration group was compared with that of the sham operation group; “*” represents that P value is less than 0.05 when the lung weight index of administration group was compared with that of the bleomycin group; “**” represents that P value is less than 0.01 when the lung weight index of administration group was compared with that of bleomycin group.
Pulmonary fibrosis models were made according to the method described in Example 2 and administered in groups according to Table 9. After 28 days, the lungs of the mice were finely stripped and weighed, and the lung weight (mg) was divided by the body weight (g) of the mice to obtain a lung weight index. […] In FIG. 13, “##” represents that P value is less than 0.01 when the lung weight index of the administration groups were compared with that of the sham operation group; “*” represents that P value is less than 0.05 and “**” represents that P value is less than 0.01 when the lung weight index of the administration groups were compared with bleomycin group.

[2] = tested on: mice with bleomycin-induced pulmonary fibrosis; assay: Pulmonary function (Flexivent) in mice with pulmonary fibrosis; assay type: in vivo, C57BL/6 mice; conditions: Table 3 groups, 2 mg/kg i.p.; for Dynamic compliance (mL/cmH2O) / Dynamic elasticity (cmH2O./mL) / Dynamic resistance (cmH2O · s/Ml) / Inspiratory capacity: 28th day after model construction; for pulmonary function of mice with pulmonary fibrosis (in words): FIG. 11
Method: as §1
(§2) Pulmonary function is a gold indicator for clinical detection of pulmonary fibrosis in patients. The decline of lung function is generally accompanied by an aggravation of fibrosis, while the improvement of lung function generally represents the recovery of lung tissue structure. Pulmonary fibrosis models were prepared according to the method described in Example 2 and administered in groups according to Table 3. On the 28th day after the construction of the animal model, the mice were anesthetized with sodium pentobarbital (45 mg/kg, i.p.). Lung function was tested by the Flexivent Small-animal respiratory mechanics and the testing methods were TLC and SnapShots (Testing method refers to Lv X, Wang X, Li K, et al. Rupatadine Protects against Pulmonary Fibrosis by Attenuating PAF-Mediated Senescence in Rodents [J]. PloS one, 2013, 8(7): e68631).
as §2, with “lung function also generally represents” for “lung function generally represents”, “to Table 9. 28 days later, the mice” for “to Table 3. On the 28th day after the construction of the animal model, the mice”, “Senescence in Rodents[J]. PloS one,” for “Senescence in Rodents [J]. PloS one,”

[3] = molecular target: T1, TRB3/MDM2 protein interaction (Homo sapiens, UniProt Q96RU7); assay: Co-immunoprecipitation: inhibition of binding of MDM2 to TRB3 in BEAS-2B cells; assay type: cell-based; conditions: BEAS-2B cells with TRB3 expression plasmid, 1 mg/mL polypeptide, 12 hours, co-IP with MDM2 antibody
T1 construct: host or cells: BEAS-2B
T1 sequence (Q96RU7 1-358): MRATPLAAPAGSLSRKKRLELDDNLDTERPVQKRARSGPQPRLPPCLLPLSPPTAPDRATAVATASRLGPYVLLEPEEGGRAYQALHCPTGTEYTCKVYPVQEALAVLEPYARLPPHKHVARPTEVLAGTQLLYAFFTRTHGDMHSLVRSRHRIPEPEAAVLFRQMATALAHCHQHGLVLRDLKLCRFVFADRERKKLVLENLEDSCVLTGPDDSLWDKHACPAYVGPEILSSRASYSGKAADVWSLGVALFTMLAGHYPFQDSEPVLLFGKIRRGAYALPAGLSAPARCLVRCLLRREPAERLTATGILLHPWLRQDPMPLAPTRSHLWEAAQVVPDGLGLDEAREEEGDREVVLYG
Method: 1. Human lung epithelial BEAS-2B cells (purchased from Institute of Basic Medical Sciences, Chinese Academy of Medical Sciences) were seeded in a 90 mm^2 culture dish. After the cells were adhered to the wall of culture dish, the TRB3 expression plasmid were transferred to the cells according to the method described in Example 5. After 24 hours, 1 mg/mL of the polypeptides MR2, S1, S2, S3, S4, S5, S6, S7, S8, S9, S10 or S11 prepared in Example 1 were added respectively, and the cells were incubated for 12 hours in a 37° C. incubator and then harvested.
2. Co-immunoprecipitation with MDM2 antibody was performed according to the method described in Example 3, followed by detection using TRB3 antibody.

[4] = α-helix ratio of polypeptides by circular dichroism; assay type: physicochemical; conditions: PBS solution, 1 mg/mL
Method: The α-helix ratio of the polypeptide was measured by a circular dichromatograph (purchased from Jasco, Japan). The polypeptides MR2, S1, S2, S3, S4, S5, S6, S7, S8, S9, S10 and S11 prepared in Example 1 were dissolved in PBS solution, and the working concentration of the circular dichromatograph was adjusted to 1 mg/mL. […] Among them, the α-helix ratio refers to the percentage of the number of peptide segments of the polypeptide that maintains the alpha helix of the secondary structure in the peptide segments of the total polypeptide.

SMILES	Lung weight index [1]	Dynamic compliance (mL/cmH2O) [2] [mL/cmH2O]	Dynamic elasticity (cmH2O./mL) [2] [cmH2O./mL]	Dynamic resistance (cmH2O · s/Ml) [2] [cmH2O · s/Ml]	Inspiratory capacity [2] [mL]	pulmonary function of mice with pulmonary fibrosis (in words) [2]	interaction of TRB3 and MDM2 protein (FIG. 5, in words) [3]	α-helicity (%) [4] [%]	α-helix ratio compared with polypeptide MR2 (in words) [4]
CSCC[C@H](NC(=O)[C@H](CC(C)C)NC(=O)[C@@H](N)Cc1c[nH]cn1)C(=O)N[C@@H](C)C(=O)N[C@@H](CS)C(=O)N[C@@H](Cc1ccccc1)C(=O)N[C@H](C(=O)N[C@@H](CS)C(=O)N[C@@H](C)C(=O)N[C@@]1(C)CCCC=CCCC[C@@](C)(C(=O)N[C@@H](CCCNC(=N)N)C(=O)O)NC(=O)[C@H](CCCCN)NC(=O)[C@H](CC(C)C)NC(=O)[C@H](CCCCN)NC1=O)[C@@H](C)O [S10, His-Leu-Met-Ala-Cys-Phe-Thr-Cys-Ala-S5-Lys-Leu-Lys-S5-Arg] (H-HLMACFTCA[S5]KLK[S5]R-OH; staple 10-14; N-terminus and C-terminus assumed)	8.8875	0.2333	49.5	1.367	0.562	improved	interrupted	31.5	significantly higher than that of polypeptide MR2
CSCC[C@H](NC(=O)[C@H](CC(C)C)NC(=O)[C@@H](N)Cc1c[nH]cn1)C(=O)N[C@@]1(C)CCCC=CCCC[C@@](C)(C(=O)N[C@@H](C)C(=O)N[C@@H](CCCCN)C(=O)N[C@@H](CCCCN)C(=O)N[C@@H](CC(C)C)C(=O)N[C@@H](CCCCN)C(=O)N[C@@H](CCCCN)C(=O)N[C@@H](CCCNC(=N)N)C(=O)O)NC(=O)[C@H]([C@@H](C)O)NC(=O)[C@H](Cc2ccccc2)NC(=O)[C@H](CS)NC1=O [S4, His-Leu-Met-S5-Cys-Phe-Thr-S5-Ala-Lys-Lys-Leu-Lys-Lys-Arg] (H-HLM[S5]CFT[S5]AKKLKKR-OH; staple 4-8; N-terminus and C-terminus assumed)	8.925	0.2617	59.33	1.267	0.564	improved	interrupted	33.6	significantly higher than that of polypeptide MR2
CSCC[C@H](NC(=O)[C@H](CC(C)C)NC(=O)[C@@H](N)Cc1c[nH]cn1)C(=O)N[C@@H](C)C(=O)N[C@@H](CS)C(=O)N[C@@H](Cc1ccccc1)C(=O)N[C@H](C(=O)N[C@@]1(C)CCCC=CCCC[C@@](C)(C(=O)N[C@@H](CCCCN)C(=O)N[C@@H](CCCCN)C(=O)N[C@@H](CCCNC(=N)N)C(=O)O)NC(=O)[C@H](CCCCN)NC(=O)[C@H](CCCCN)NC(=O)[C@H](C)NC1=O)[C@@H](C)O [S8, His-Leu-Met-Ala-Cys-Phe-Thr-S5-Ala-Lys-Lys-S5-Lys-Lys-Arg] (H-HLMACFT[S5]AKK[S5]KKR-OH; staple 8-12; N-terminus and C-terminus assumed)	8.775	0.2583	66.5	1.35	0.626	improved	interrupted	29.1	significantly higher than that of polypeptide MR2
